Data set [1] is described as follows: In vivo plasma levels by HPLC after i.p. administration. Also noted: species or system nude mice. The note with it: for Plasma level: 5 hours after last administration, 5% DMSO, H2O. How it is done: To evaluate the plasma levels of salt 1a, 4-oxo-4-HPR (120 mg/kg) and salt 1a (sodium 4-aminoxyacetate-4-HPR) (60 and 100 mg/kg) were administered i.p. to nude mice for 4 consecutive days (once a day), and the plasma levels were evaluated by HPLC 5 hours after the last administration (the results are summarized in Table 2).

In data set [2] the test system is A2780. As to the kind of experiment: Antiproliferative activity, sulphorhodamine B assay, 72 hours of treatment. Format: cell-based. The note with it: A2780 (ovary). The method, then: (§1) The antiproliferative activity of the various compounds 1a-c (in both monotherapy and combined treatment) on the different tumour cell lines was evaluated by sulphorhodamine B assay after 72 hours of treatment, and the dose able to inhibit 50% of growth (IC50) was calculated for the monotherapy (the results are summarized in Table 1 and Table 3), while the Kern Index (KI) was determined as the synergism/antagonism […] index for the combined treatment (the results are depicted in FIG. 2).

Data set [3] has as its system T47-D. The data set is described as above. It counts as cell-based. The note with it: T47-D (breast). How it is done:
as §1

For data set [4], the system named is IGROV-1. The description is as above. It counts as cell-based, human. The note with it: IGROV-1 (ovary). How it is done:
as §1

Data set [5] relates to MDA-MB-231. Described as above. Format: cell-based, human. The note with it: MDA-MB-231 (breast). How it is done: as §1
Data set [6] deals with ovarian cancer cells (A2780). As to the kind of experiment: Cell cycle and apoptosis in ovarian cancer cells. Format: cell-based.
The subject of data set [7] is BT-474. As to the kind of experiment: Antiproliferative activity, sulphorhodamine B assay, 72 hours of treatment. It counts as cell-based. The note with it: BT-474 (breast). The method, then:
as §1

In data set [8] the test system is JVM-2. Described as above. Format: cell-based. The settings on record: JVM-2 (lymphoma). How it is done:
as §1

The subject of data set [9] is MESO. The description is as above. It counts as cell-based. The settings on record: MESO (mesothelioma). How it is done: as §1
For data set [10], the system named is SK-N-BE. Described as above. Format: cell-based. The settings on record: SK-N-BE (neuroblastoma). How it is done:
as §1

The subject of data set [11] is SK-N-SH. Described as above. It counts as cell-based. The note with it: SK-N-SH (neuroblastoma). The method, then: as §1
For data set [12], the system named is SKOV-3. Described as above. It counts as cell-based. The settings on record: SKOV-3 (ovary). The method, then: as §1
In data set [13] the test system is Sk-N-5Y. The data set is described as above. Format: cell-based. The settings on record: Sk-N-5Y (neuroblastoma). How it is done: as §1
Data set [14] relates to STO. Described as above. It counts as cell-based, human. The settings on record: STO (mesothelioma). How it is done: as §1
For data set [15], the system named is human mesothelioma (STO) cells. As to the kind of experiment: In vivo antitumor activity, mesothelioma xenograft (s.c.). Also noted: species or system mice. The settings on record: 30 and 60 mg/kg i.p., 5 days/week for 4 weeks. The method, then:
As regards to mesothelioma, the mice were inoculated s.c. with STO cells, and treatment with the salt 1a began one day after tumor cell inoculation (doses: 30 and 60 mg/kg i.p.; 5 days/week for 4 weeks). The control mice were treated with the same solvent as used to dissolve the salt. The animals were examined twice a week to check their weight and any signs of toxicity. Tumour growth in the various groups (control and treated) was evaluated, and the differences were statistically analysed (the results are shown in FIG. 3a).

Data set [16] relates to ovarian cancer (IGROV-1) cells. Format: in vivo. How it is done: For the ovarian model, nude mice were inoculated i.p. with IGROV-1 cells, and treatment with the salt 1a began one day after tumor cell inoculation (doses: 30, 60 and 90 mg/kg i.p.; 5 days/week for 4 weeks). The control mice were treated with the same solvent as used to dissolve the salt. The animals were examined twice a week to check their weight and any signs of toxicity. The survival time of the various groups (control and treated) was evaluated, and the differences were statistically analysed.

In data set [17] the test system is human breast cancer cells (MDA-MB-231). As to the kind of experiment: In vivo antitumor activity, breast cancer model (mammary fat pad). The settings on record: 90 mg/kg. The method, then:
As regards the breast cancer model, human breast cancer cells (MDA-MB-231) were inoculated into the mammary fat pad of NOD/SCID-gamma mice, and treatment with the salt 1a began one week after tumor cell inoculation (dose: 90 mg/kg; 4 days/week for 5 weeks). The animals were examined twice a week to check their weight and any signs of toxicity. Tumour growth in the various groups (control and treated) was evaluated, and the differences were statistically analysed.

Data set [18] has as its system ROS. As to the kind of experiment: ROS generation, CM-H2DCFDA probe, FACS. It counts as cell-based. The settings on record: 5 hours of treatment. How it is done:
(§2) As regards to the evaluation of the mechanism of action, ROS generation was determined after 5 hours of treatment with the use of the 5-(and -6)-chloromethyl-2′, 7′-dichlorodihydrofluorescein diacetate (CM-H2DCFDA) probe, while the cell cycle was evaluated by staining with propidium iodide. Cytofluorimetric analysis (FACS) was conducted in both cases.

The subject of data set [19] is cell cycle. As to the kind of experiment: Cell cycle, propidium iodide staining, FACS. Format: cell-based. The method, then:
as §2

For data set [20], the system named is tumour cell lines of different histotypes. As to the kind of experiment: Antiproliferative activity of combined treatment, sulphorhodamine B assay, Kern Index. It counts as cell-based. The note with it: 72 hours, preliminary. How it is done:
as §1

Consider `CC1=C(/C=C/C(C)=C/C=C/C(C)=C/C(=O)Nc2ccc(O)cc2)C(C)(C)CCC1=O` [Compound 4-oxo-4-HPR, 4-oxo-N-(4-hydroxyphenyl)retinamide], for which the Plasma level in [1] (i.p. once a day for 4 days, 5% cremophor) is reported as 0.8 μM ± 0.4. In addition, in data set [1] (treated mice, i.p.), the “Accumulation of the compound in proximity to the inoculation site” value is recorded as “observed”.

Take `CC1=C(/C=C/C(C)=C/C=C/C(C)=C/C(=O)Nc2ccc(O)cc2)C(C)(C)CCC1=NOCCCC(=O)O` [LOM1098]: the IC50 in data set [2] was found to be 3590 nM; in data set [3], 4200 nM; in data set [4], 3540 nM; in [5] it was 4260 nM.

As for `CCCCC(ON=C1CCC(C)(C)C(/C=C/C(C)=C/C=C/C(C)=C/C(=O)Nc2ccc(O)cc2)=C1C)C(=O)O` (centres unmarked) [LOM1133], the IC50 in data set [2] was found to be 2370 nM; in data set [3] it was 3000 nM; in data set [4] it was 2190 nM; in data set [5] it was 2950 nM.

Take `CC(C=CC1=C(C)C(=NOCCN)CCC1(C)C)=CC=CC(C)=CC(=O)Nc1ccc(O)cc1` [Compound 1d, 9-[3-(2-Amino-ethoxyimino)-2,6,6-trimethyl-cyclohex-1-enyl]-3,7-dimethylnona-2,4,6,8-tetraenoic acid (4-hydroxy-phenyl)amide]: the melting point was found to be 134 °C. For the same compound, in data set [2] (Homo sapiens), the IC50 amounted to 955 nM. Further, in data set [6], the “Apoptotic activity (sub-G1 peak)” value is “apoptotic (sub-G1 peak)” and the Cell cycle arrest result is on record as “induced a cycle arrest in G2-M”.

For `CC1=C(/C=C/C(C)=C/C=C/C(C)=C/C(=O)Nc2ccc(O)cc2)C(C)(C)CCC1=NOCC(=O)[O-].[Na+]` [Salt 1a], the IC50 in [2] is 2780 nM; in data set [7], 3690 nM; in data set [8], 1110 nM; in [9] it was 1280 nM; in data set [10], 1550 nM; in data set [11], 1900 nM. The IC50 in data set [12] worked out at 5960 nM; in data set [13], 1300 nM; in [3] it was 3950 nM; in data set [4] it was 3820 nM; in [5], 3970 nM; in data set [14], 1480 nM. In addition, the Plasma level in data set [1] (60 mg/Kg i.p. once a day for 4 days) is given as 60.3 μM ± 2.52; in data set [1] (100 mg/Kg i.p. once a day for 4 days), 63.7 μM ± 2.08. Further, in data set [1] (daily doses of 60 and 100 mg/kg), the “Toxicity for the animals” value is “does not possess high toxicity”. In addition, in [1] (from in vivo experiments in murine models), the “Solubility compared with the parent compound” value is “far more soluble than the parent compound”. Also, the “Plasma levels, times higher than 4-oxo-4-HPR” value in [1] (murine models, versus 4-oxo-4-HPR) was “up to 60 times”. Also, the Tumour growth result in [15] is recorded as “activity trend of the compound, although it did not reach statistical significance”; in data set [17] (MDA-MB-231, 4 days/week for 5 weeks, p=0.01), “reduced tumour growth”. Also, in data set [16] (IGROV-1 i.p., doses of 60 and 90 mg/kg i.p., 5 days/week for 4 weeks, p<0.01), the “Survival of the mice” value was “significantly increased the survival”. Further, the Signs of toxicity result in data set [16] (IGROV-1 model, 60 and 90 mg/kg) is “without any evident signs of severe toxicity”; in data set [17] (MDA-MB-231 model), “without evident signs of severe toxicity”. Moreover, the “ROS generation (pro-apoptotic activity)” value in data set [18] was “the generation of ROS”. In addition, the “Cell cycle arrest during the mitotic phase (antitubulin activity)” value in data set [19] is reported as “the cell cycle arrest during the mitotic phase”. Further, the “Activity of combined treatment (Kern Index)” value in data set [20] (combined with 4-HPR), in [20] (combined with cisplatin) and in data set [20] (combined with paclitaxel) was “synergic activity” throughout.

Values taken from patent publication US10093621B2, “4-oxo-N-(4-hydroxyphenyl)retinamide derivatives as therapeutic agents for the treatment of cancer” (FONDAZIONE IRCCS ISTITUTO NAZIONALE DEI TUMORI, priority 2014, dated 2018).
